Entries after “also recorded” stand apart in the source; their conditions may differ. Like-named read-outs stand apart in the source and are kept apart here.
Tests used:
[1] = test system: breast adenocarcinoma (MCF7); assay: Cytotoxicity assay (resazurin reduction, 48 h), MCF7; type: cell-based, human
Procedure: (§1) Human lung carcinoma (A549, ATCC # CCL-185™), human colorectal adenocarcinoma (DLD-1, ATCC # CCL-221™), human breast adenocarcinoma (MCF7, ATCC # HTB-22™), human prostate adenocarcinoma (PC-3, ATCC # CCL-1435™) and human normal skin fibroblasts (WS1, ATCC # CRL-1502™) cell lines were obtained from the American Type Culture Collection (ATCC). All cell lines were cultured in minimum essential medium containing Earle's salts and L-glutamine (Mediatech Cellgro, VA), to which were added 10% fetal bovine serum (Hyclone), vitamins (1×), penicillin (100 IU/mL) and streptomycin (100 μg/mL), essential amino acids (1×), and sodium pyruvate (1×) (Mediatech Cellgro, VA). Cells were kept at 37° C. in a humidified environment containing 5% CO2.
(§2) Exponentially growing cells were plated in 96-well microplates (Costar, Corning Inc.) at a density of 5×10^3 cells per well in 100 μL of culture medium and were allowed to adhere for 16 h before treatment. Increasing concentrations of each compound in biotechnology performed certified dimethyl sulfoxide (DMSO) (Sigma-Aldrich, Cat. # D2438) and the cells were incubated for 48 h. The final concentration of DMSO in the culture medium was maintained at 0.5% (v/v) to avoid solvent toxicity. Cytotoxicity was assessed using resazurin (O'Brien, J. et al., 2000. Eur J Biochem 267(17): 5421-6) on an automated 96-well Fluoroskan Ascent F1™ plate reader (Labsystems) using excitation and emission wavelengths of 530 and 590 nm, respectively. Fluorescence was proportional to the cellular metabolic activity in each well. Survival percentage was defined as the fluorescence in experimental wells compared to that in control wells after subtraction of blank values. Each experiment was carried out twice in triplicate. IC50 results are expressed as mean±standard deviation.
(§3) In vitro cytotoxic activity of lupane-type bidesmosidic saponins was evaluated against four human cancer cell lines including lung carcinoma (A549), and colorectal (DLD-1), breast (MCF7) and prostate (PC-3) adenocarcinomas. The parent triterpenoids betulin (1) (Gauthier et al., 2006, supra), betulinic acid (2) (Kessler, J. H. et al., Cancer Lett. 2007, 251: 132-145) and the clinically used etoposide were used as positive controls. The cytotoxicity of 28-O-β-D-glucopyranosides of betulin (Gauthier et al., 2006, supra) and betulinic acid (Baglin et al., 2003, supra) was also investigated. The cell viability was assessed through resazurin reduction test (O'Brien et al, 2000, supra) after 48 hours of incubation between the compounds and cells. Since resazurin (Alamar blue) is a nontoxic dye, measurements can be obtained without killing the cells as opposed to the standard MTT assay (Bellamy, W. T. Drugs 1992, 44: 690-708). The cytotoxicity results were expressed as the concentration inhibiting 50% of the cell growth (IC50).

[2] = test system: colorectal adenocarcinoma (DLD-1); assay: Cytotoxicity assay (resazurin reduction, 48 h), DLD-1; type: cell-based; details: mean ± SD
Procedure: as §1, §2, §3

[3] = test system: prostate adenocarcinoma (PC-3); assay: Cytotoxicity assay (resazurin reduction, 48 h), PC-3; type: cell-based, human
Procedure: as §1, §2, §3

lung carcinoma (A549) [4] = assay: Cytotoxicity assay (resazurin reduction, 48 h), A549; type: cell-based, human
Procedure: as §1, §2, §3

[5] = test system: tested cancer cell lines (A549, DLD-1, MCF7, PC-3); assay: Cytotoxicity assay (resazurin reduction, 48 h), summary over the tested cancer cell lines; type: cell-based, human; details: for cytotoxicity compared with reference or other tested compounds: tested cancer cell lines, P<0.05 where stated; for IC50: range or bound over the cell lines, read-out: IC50 against the tested cancer cell lines
Procedure: as §1, §2
as §3, with “The cytotoxicity results were expressed as the concentration inhibiting 50% of the cell growth (IC50).” left out

lung carcinoma (A549) [6] = details: human lung carcinoma; footnote g: previously reported in Gauthier et al. 2006; cited from earlier work
[7] = test system: colorectal adenocarcinoma (DLD-1); details: human colorectal adenocarcinoma; footnote g: previously reported in Gauthier et al. 2006; cited from earlier work
[8] = human breast adenocarcinoma, 48 h, resazurin, mean ± SD, read-out: IC50 MCF7
[9] = human colorectal adenocarcinoma
[10] = human prostate adenocarcinoma, 48 h, resazurin, mean ± SD, read-out: IC50 PC-3
[11] = human lung carcinoma, 48 h, resazurin, mean ± SD

“28-O-α-L-Rhamnopyranosyl betulinic acid 3β-O-α-L-rhamnopyranoside [Compound 22b]” showed an IC50 [1, 8] of 6 ± 0.6 µM, an IC50 [2, 9] of 7.3 ± 0.3 µM and an IC50 [3, 10] of 7.2 ± 0.5 µM. For the same molecule, the IC50 (lung carcinoma (A549) [4]; [11]) was 7.2 ± 0.5 µM and the “cytotoxicity compared with reference or other tested compounds” value [5] was “significantly more active than their parent triterpenoids”.
Work on “28-O-β-D-Glucopyranosyl betulin 313-O-α-L-rhamnopyranoside [Compound 16b]” yielded an IC50 [1, 8] of 9 ± 0.7 µM, an IC50 [2, 9] of 10.6 ± 0.9 µM and an IC50 [3, 10] of 6.9 ± 0.4 µM. For the same molecule, the IC50 (lung carcinoma (A549) [4]; [11]) was 16.8 ± 0.9 µM.
For “28-O-β-D-Glucopyranosyl betulin [Compound 28GBet, reference compound]”, the IC50 [1, 8] was > 100 µM, the IC50 [2, 9] was > 100 µM and the IC50 [3, 10] was > 100 µM. The IC50 (lung carcinoma (A549) [6]) was > 100 µM.
In the case of C=C(C)[C@@H]1CC[C@]2(C(=O)O)CC[C@]3(C)[C@H](CC[C@@H]4[C@@]5(C)CC[C@H](O)C(C)(C)[C@@H]5CC[C@]43C)[C@@H]12 [Compound 2, Betulinic acid], the IC50 [1, 8] is given as 41 ± 1 µM, the IC50 [3, 10] is given as 40 ± 2 µM and the IC50 [7] is given as 15 µM. For the same molecule, the IC50 (lung carcinoma (A549) [6]) was 10.3 ± 0.4 µM.
In the case of C=C(C)[C@@H]1CC[C@]2(C(=O)O[C@@H]3O[C@H](CO)[C@@H](O)[C@H](O)[C@H]3O)CC[C@]3(C)[C@H](CC[C@@H]4[C@@]5(C)CC[C@H](O[C@@H]6OC[C@H](O)[C@H](O)[C@H]6O)C(C)(C)[C@@H]5CC[C@]43C)[C@@H]12 [Compound 3, 28-O-β-D-Glucopyranosyl betulinic acid 3β-O-α-L-arabinopyranoside], the IC50 [1, 8] is reported as 23 ± 1 µM, the IC50 [2, 9] is reported as 60 ± 5 µM and the IC50 [3, 10] is reported as 68 ± 7 µM. For the same molecule, the IC50 (lung carcinoma (A549) [4]; [11]) was 76 ± 4 µM and the IC50 [5] was 23 to 76 µM.
Molecule C=C(C)[C@@H]1CC[C@]2(CO[C@@H]3O[C@H](CO)[C@@H](O)[C@H](O)[C@H]3O)CC[C@]3(C)[C@H](CC[C@@H]4[C@@]5(C)CC[C@H](O[C@@H]6OC[C@H](O)[C@H](O)[C@H]6O)C(C)(C)[C@@H]5CC[C@]43C)[C@@H]12 [Compound 16a, 28-O-β-D-Glucopyranosyl betulin 313-O-α-L-arabinopyranoside] has an IC50 ([1]; breast adenocarcinoma (MCF7), read-out: IC50 against MCF7) of 9.5 µM, an IC50 [2, 9] of 19 ± 2 µM and an IC50 ([3]; PC-3 cell line, read-out: IC50 against PC-3) of 5.3 µM. For the same molecule, the IC50 (lung carcinoma (A549) [4]; [11]) was > 100 µM.
In the case of C=C(C)[C@@H]1CC[C@]2(C(=O)O[C@@H]3O[C@H](CO)[C@@H](O)[C@H](O)[C@H]3O)CC[C@]3(C)[C@H](CC[C@@H]4[C@@]5(C)CC[C@H](O[C@@H]6O[C@@H](C)[C@H](O)[C@@H](O)[C@H]6O)C(C)(C)[C@@H]5CC[C@]43C)[C@@H]12 [Compound 19, 28-O-β-D-Glucopyranosyl betulinic acid 3β-O-α-L-rhamnopyranoside], the IC50 [1, 8] is reported as 5.7 ± 0.6 µM, the IC50 [2, 9] is reported as 11 ± 0.5 µM and the IC50 [3, 10] is reported as 11.2 ± 0.8 µM. For the same molecule, the IC50 (lung carcinoma (A549) [4]; [11]) was 23 ± 1 µM.
With C=C(C)[C@@H]1CC[C@]2(CO[C@@H]3O[C@H](CO)[C@@H](O)[C@H](O)[C@H]3O)CC[C@]3(C)[C@H](CC[C@@H]4[C@@]5(C)CC[C@H](O[C@@H]6O[C@H](CO)[C@@H](O)[C@H](O)[C@H]6O)C(C)(C)[C@@H]5CC[C@]43C)[C@@H]12 [Compound 21a, 28-O-β-D-Glucopyranosyl betulin 3β-O-β-D-glucopyranoside] the “cytotoxicity compared with betulinic acid, MCF7” value ([1]; breast adenocarcinoma (MCF7)) was “significantly more active than betulinic acid (2)”, the IC50 [1, 8] was 14.5 ± 0.9 µM and the IC50 [2, 9] was 27 ± 2 µM. The IC50 [3, 10] was > 100 µM and the IC50 (lung carcinoma (A549) [4]; [11]) was > 100 µM.
In the case of C=C(C)[C@@H]1CC[C@]2(C(=O)O[C@@H]3O[C@H](CO)[C@@H](O)[C@H](O)[C@H]3O)CC[C@]3(C)[C@H](CC[C@@H]4[C@@]5(C)CC[C@H](O[C@@H]6O[C@H](CO)[C@@H](O)[C@H](O)[C@H]6O)C(C)(C)[C@@H]5CC[C@]43C)[C@@H]12 [Compound 21b, 28-O-β-D-Glucopyranosyl betulinic acid 3β-O-β-D-glucopyranoside], the “cytotoxicity compared with betulinic acid, MCF7” value ([1]; breast adenocarcinoma (MCF7)) is reported as “significantly more active than betulinic acid (2)”, the IC50 [1, 8] is reported as 20 ± 2 µM and the IC50 [2, 9] is reported as > 100 µM. The IC50 [3, 10] was 66 ± 3 µM and the IC50 (lung carcinoma (A549) [4]; [11]) was > 100 µM.
C=C(C)[C@@H]1CC[C@]2(CO[C@@H]3O[C@@H](C)[C@H](O)[C@@H](O)[C@H]3O)CC[C@]3(C)[C@H](CC[C@@H]4[C@@]5(C)CC[C@H](O[C@@H]6O[C@@H](C)[C@H](O)[C@@H](O)[C@H]6O)C(C)(C)[C@@H]5CC[C@]43C)[C@@H]12 [Compound 22a, 28-O-α-L-Rhamnopyranosyl betulin 3β-O-α-L-rhamnopyranoside] showed an IC50 [1, 8] of 1.7 ± 0.2 µM, an IC50 [2, 9] of 1.9 ± 0.1 µM and an IC50 [3, 10] of 1.8 ± 0.1 µM. For the same molecule, the IC50 (lung carcinoma (A549) [4]; [11]) was 1.9 ± 0.1 µM, the IC50 [5] was 1.7 to 1.9 µM and the “cytotoxicity compared with reference or other tested compounds” value [5] was “significantly more active than their parent triterpenoids; also recorded: the most potent of all tested compounds”.
In the case of C=C(C)[C@@H]1CC[C@]2(C(=O)O[C@@H]3O[C@H](CO)[C@@H](O)[C@H](O)[C@H]3O)CC[C@]3(C)C(CC[C@@H]4[C@@]5(C)CC[C@H](O)C(C)(C)[C@@H]5CC[C@]43C)[C@H]12 (stereo partly drawn) [Compound 28GBetA, 28-O-β-D-glucopyranosyl betulinic acid, reference compound], the IC50 [1, 8] is reported as > 100 µM, the IC50 [2, 9] is reported as > 100 µM and the IC50 [3, 10] is reported as > 100 µM. For the same molecule, the IC50 (lung carcinoma (A549) [4]; [11]) was > 100 µM.
Work on COc1cc([C@@H]2c3cc4c(cc3[C@@H](O[C@@H]3O[C@@H]5CO[C@@H](C)O[C@H]5[C@H](O)[C@H]3O)[C@H]3COC(=O)[C@H]23)OCO4)cc(OC)c1O [Etoposide, etoposide, reference compound] yielded an IC50 ([2]; DLD-1, human colorectal adenocarcinoma) of 27 ± 5 µM and an IC50 (lung carcinoma (A549) [4]; A549, human lung carcinoma, 48 h, resazurin, mean ± SD) of 3.4 ± 0.1 µM.
In the case of “betulinic acid 3 β-O-α-L-rhamnopyranoside [reference compound]”, the IC50 (lung carcinoma (A549) [4]; A549, comparator named in text) is reported as 3.8 µM.
